Values joined by “and” are separate entries in the source; they are usually repeats but may differ in a detail not shown here. Equal values may be shown once.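 How tested: cells in 96-well plates exposed to compound for 48 hours at five concentrations. GI50 marks 50% less growth. TGI: total growth inhibition.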
Key:
Experiment in all cases: DTP human tumour cell line panel, 48 h
ACHN renal = system: ACHN renal
HOP-62 NSCLC = system: HOP-62 NSCLC
M14 melanoma = system: M14 melanoma
MALME-3M melanoma = system: MALME-3M melanoma
MOLT-4 leukemia = system: MOLT-4 leukemia
OVCAR-8 ovarian = system: OVCAR-8 ovarian
SK-MEL-28 melanoma = system: SK-MEL-28 melanoma
IGROV1 ovarian = system: IGROV1 ovarian
HT29 colon = system: HT29 colon
DU-145 prostate = system: DU-145 prostate

SMILES | GI50 (ACHN renal) | TGI (ACHN renal) | TGI (HOP-62 NSCLC) | TGI (M14 melanoma) | TGI (MALME-3M melanoma) | TGI (MOLT-4 leukemia) | GI50 (OVCAR-8 ovarian) | TGI (OVCAR-8 ovarian) | TGI (SK-MEL-28 melanoma) | TGI (IGROV1 ovarian) | TGI (HT29 colon) | GI50 (HOP-62 NSCLC) | GI50 (M14 melanoma) | TGI (DU-145 prostate) | GI50 (HT29 colon)
CCCCCCCCCCC(O)C1CCC(C(O)CCC(O)C2CCC(CCCCCCC[C@H](O)CC3=C[C@@H](C)OC3=O)O2)O1 (stereo not given in full) | > 100 µM | > 100 µM | > 100 µM | > 100 µM | > 100 µM | > 100 µM | 7.39 µM | 34 µM | > 100 µM | > 100 µM | > 100 µM |  |  |  | 
CN(C)CC/C(=N\Nc1ccccc1)c1ccccc1 |  |  | 31 µM | 4.73 µM | 25.6 µM | > 100 µM |  |  |  | > 100 µM | 10 µM |  |  |  | 
CCc1nc(N)nc(C(=O)NCCNC(=O)c2nc(N)nc(CC)c2C)c1C |  | > 100 µM | > 100 µM | > 100 µM | > 100 µM | > 100 µM |  | > 100 µM | > 100 µM | > 100 µM | > 100 µM |  |  |  | 
CSc1nc(NC(=O)O)c(N(C(C)=O)C(=O)O)c(=O)n1C |  | > 100 µM |  | > 100 µM | > 100 µM | > 100 µM |  | > 100 µM | > 100 µM | > 100 µM | > 100 µM |  |  |  | 
CCn1c(O)c(C=N)c(=O)n(CC)c1=O |  | > 100 µM | > 100 µM | > 100 µM | > 100 µM | > 100 µM |  | > 100 µM | > 100 µM | > 100 µM | > 100 µM |  |  |  | 
O=C1NC2CCC(C2)C1c1ccccc1 (stereo not given) |  | > 100 µM |  | > 100 µM | > 100 µM | > 100 µM |  | > 100 µM | > 100 µM | > 100 µM | > 100 µM |  |  |  | 
O=[N+]([O-])c1ccc(N=Nc2c(O)ccc3ccccc23)cc1 | 31.3 µM and > 100 µM | > 100 µM | 37.4 µM and > 100 µM | > 100 µM |  | > 100 µM | > 100 µM | > 100 µM | > 100 µM | > 100 µM | > 100 µM | 14.5 µM and > 100 µM | 43.6 µM and > 100 µM | > 100 µM | 35.8 µM and > 100 µM
O=C(Nc1ccc(F)cc1)C(=O)C(C1OC(=O)c2ccccc21)[N+](=O)[O-] (stereo not given) |  | > 100 µM | > 100 µM | > 100 µM | > 100 µM | > 100 µM |  | > 100 µM | > 100 µM | > 100 µM | > 100 µM |  |  |  | 
COC1OC(C)C(O)CC1OS(=O)(=O)c1ccc(C)cc1 (stereo not given) |  | > 100 µM |  | > 100 µM | > 100 µM | > 100 µM |  | > 100 µM | > 100 µM | > 100 µM | > 100 µM |  |  |  | 
CC(=O)N/C(=C\c1cccc([N+](=O)[O-])c1)c1nc2c3c(ccc2[nH]1)C(=O)c1ccccc1C3=O |  | 47.9 µM | > 100 µM | > 100 µM | > 100 µM | > 62.9 µM |  | > 100 µM | > 100 µM | > 100 µM | > 100 µM |  |  |  | 
COC(=O)C12C3C4C5C3(C#N)C1C5(C(=O)OC)C42C(=O)N(C(C)C)C(C)C (stereo not given) |  | > 100 µM | > 100 µM | > 100 µM | > 100 µM | > 100 µM |  | > 100 µM | > 100 µM | > 100 µM | > 100 µM |  |  |  | 

Source: PubChem BioAssay (NCI)
